The record followed here is ChEMBL document CHEMBL4342484, “Structure-Activity Relationship for the Oxadiazole Class of Antibacterials” (ACS Med Chem Lett, 2020).

In data set [1] the test system is Staphylococcus aureus. Nature of the data set: Antibacterial activity against Staphylococcus aureus ATCC 29213 by broth microdilution method. It is filed as functional. For orientation: Broth dilution looks for growth in wells or tubes with falling amounts of substance.
In data set [2] the test system is Enterococcus faecalis. Nature of the data set: Antibacterial activity against vancomycin-susceptible Enterococcus faecalis 201 clinical isolate by broth microdilution method. It counts as functional.
Data set [3] deals with Staphylococcus aureus. Nature of the data set: Antibacterial activity against vancomycin-resistant Staphylococcus aureus VRS1 clinical isolate by broth microdilution method. It counts as functional.
The subject of data set [4] is Enterococcus faecalis. Nature of the data set: Antibacterial activity against Enterococcus faecalis ATCC 29212 by broth microdilution method. It is filed as functional.
In data set [5] the test system is Staphylococcus aureus. The experiment in a line: Antibacterial activity against vancomycin-resistant Staphylococcus aureus VRS2 clinical isolate by broth microdilution method. It counts as functional.
In data set [6] the test system is Staphylococcus haemolyticus. The experiment in a line: Antibacterial activity against Staphylococcus haemolyticus ATCC 29970 by broth microdilution method. It is filed as functional.
The nature of data set [7]: Hemolytic activity in human RBC relative to control. It counts as ADME, cell-based, Erythrocyte. Conditions: red blood cells (erythrocytes), read-out: Activity.
The nature of data set [8]: Plasma protein binding in human at […] incubated for 2 hrs by UPLC analysis. Conditions: read-out: PPB (converted). It counts as ADME, cell-free.
In a further data set the test system is HepG2. Nature of the data set: Cytotoxicity against human HepG2 cells assessed as reduction in cell viability by XTT assay. It is filed as cell-based. A general note: Tetrazolium dyes change colour on reduction, which living cells bring about.

In brackets after ≈: the same amount, converted by molar mass.

As usually defined, the MIC is the lowest concentration found to suppress growth. A low value points to greater potency. The compound `FC(F)(F)Oc1ccc(-c2noc(-c3ccc4[nH]ccc4c3)n2)cc1` yielded an MIC in the data set with Staphylococcus aureus [1] of at least 128 µg/mL.

In turn, `NC(=O)c1ccccc1Oc1ccc(-c2noc(-c3ccc(O)cc3)n2)cc1` yielded an MIC in the data set with Staphylococcus aureus [1] of at least 128 µg/mL.

`Oc1ccc(-c2nc(-c3ccc(Oc4ccccn4)cc3)no2)cc1` registered an MIC against Staphylococcus aureus [1] of at least 128 µg/mL.

On to `Oc1ccc(Oc2ccc(-c3noc(-c4ccc(O)cc4)n3)cc2)cc1`, for which the MIC in the data set on Staphylococcus aureus [1] was determined as 16 µg/mL (≈ 46.2 µM).

In turn, `Oc1ccc(-c2nc(-c3ccc(Oc4ccc(I)cc4)cc3)no2)cc1` had an MIC against Staphylococcus aureus [1] of 4 µg/mL (≈ 8.77 µM).

Regarding `Cl.Clc1c[nH]nc1-c1nc(-c2ccc(OC3CCCNC3)cc2)no1` (centres undefined), in the data set with Staphylococcus aureus [1], the MIC is at least 128 µg/mL.

For `Clc1c[nH]nc1-c1nc(-c2ccc(OC3CN4CCC3CC4)cc2)no1` (centres undefined), inhibition of growth in the data set with Staphylococcus aureus [1] (MIC) required 128 µg/mL (≈ 344 µM).

In turn, `CC(C)(C)Oc1ccc(-c2noc(-c3ccc(O)cc3)n2)cc1` registered an MIC against Staphylococcus aureus [1] of at least 128 µg/mL.

In the case of `CC(C)S(=O)(=O)Oc1ccc(-c2noc(-c3ccc(O)cc3)n2)cc1`, in the data set on Staphylococcus aureus [1], the MIC was at least 128 µg/mL.

On to `Oc1ccc(-c2nc(-c3ccc(OC4CCNCC4)cc3)no2)cc1`, for which, in the data set with Staphylococcus aureus [1], the MIC amounted to 16 µg/mL (≈ 47.4 µM).

The compound `O=C(O)c1cccc(Oc2ccc(-c3noc(-c4ccc(O)cc4)n3)cc2)c1` showed an MIC against Staphylococcus aureus [1] of 64 µg/mL (≈ 171 µM).

`Oc1ccc(-c2noc(-c3ccc(O)cc3)n2)cc1`: the MIC in the data set with Staphylococcus aureus [1] is at least 128 µg/mL.

In the case of `CN[C@H](CC(C)C)C(=O)N[C@H]1C(=O)N[C@@H](CC(N)=O)C(=O)N[C@H]2C(=O)N[C@H]3C(=O)N[C@H](C(=O)N[C@H](C(=O)O)c4cc(O)cc(O)c4-c4cc3ccc4O)[C@H](O)c3ccc(c(Cl)c3)Oc3cc2cc(c3O[C@@H]2O[C@H](CO)[C@@H](O)[C@H](O)[C@H]2O[C@H]2C[C@](C)(N)[C@H](O)[C@H](C)O2)Oc2ccc(cc2Cl)[C@H]1O` [VANCOMYCIN], the MIC in the data set on Enterococcus faecalis [2] was 1 µg/mL (≈ 0.69 µM); against Staphylococcus aureus [3] it was 64 µg/mL (≈ 44.2 µM); with Enterococcus faecalis [4] it was 2 µg/mL (≈ 1.38 µM); against Staphylococcus aureus [5], 32 µg/mL (≈ 22.1 µM); in data set [6] it was 4 µg/mL (≈ 2.76 µM).

With `CC(C)(C)OC(=O)NC1CCC(Oc2ccc(-c3noc(-c4ccc(O)cc4)n3)cc2)CC1` (centres undefined), in the data set with Staphylococcus aureus [1], the MIC is at least 128 µg/mL.

`Oc1ccc(-c2nc(-c3ccc(Oc4ccc(Br)cc4)cc3)no2)cc1` showed an MIC against Staphylococcus aureus [1] of 2 µg/mL (≈ 4.89 µM).

In turn, `CN(C)C(=O)Oc1ccc(-c2noc(-c3ccc(O)cc3)n2)cc1` came in with an MIC in the data set with Staphylococcus aureus [1] of at least 128 µg/mL.

Regarding `Oc1ccc(-c2nc(-c3ccc(OC4CN5CCC4CC5)cc3)no2)cc1` (centres undefined), the lowest concentration to inhibit growth against Staphylococcus aureus [1] (MIC) was 64 µg/mL (≈ 176 µM).

As to `CN1CCCC(Oc2ccc(-c3noc(-c4ccc(O)cc4)n3)cc2)C1` (centres undefined), the MIC against Staphylococcus aureus [1] was 64 µg/mL (≈ 182 µM).

For `CC(=O)N1CCC(Oc2ccc(-c3noc(-c4ccc(O)cc4)n3)cc2)CC1`, in the data set with Staphylococcus aureus [1], the MIC was at least 128 µg/mL.

`O=C(c1cccc(Oc2ccc(-c3noc(-c4ccc(O)cc4)n3)cc2)c1)C(F)(F)F` gave an MIC against Staphylococcus aureus [1] of 4 µg/mL (≈ 9.38 µM).

`Clc1c[nH]nc1-c1nc(-c2ccc(OC3CCCC3)cc2)no1` registered an MIC in the data set with Staphylococcus aureus [1] of at least 128 µg/mL.

In the data set on Staphylococcus aureus [1], `COc1ccc(Oc2ccc(-c3noc(-c4ccc(O)cc4)n3)cc2)cc1` returned an MIC of 2 µg/mL (≈ 5.55 µM).

The compound `CC(=O)NCCOc1ccc(-c2noc(-c3ccc(O)cc3)n2)cc1` yielded an MIC in the data set with Staphylococcus aureus [1] of over 128 µg/mL.

Usually IC50 stands for the concentration needed to halve the response being measured. With `Fc1ccc(Oc2ccc(-c3noc(-c4n[nH]cc4Cl)n3)cc2)cc1Cl`, the hemolysis in data set [7] came out at 2.9%. The same compound displayed an MIC with Staphylococcus aureus [1] of 2 µg/mL (≈ 5.11 µM). The fraction unbound at 2 h in [8] is 0.088. For the same compound, the IC50 with HepG2 was 21 µg/mL (≈ 53.7 µM).

Consider `Oc1ccc(-c2nc(-c3ccc(Oc4cccc(Br)c4)cc3)no2)cc1`, for which the MIC against Staphylococcus aureus [1] amounted to 4 µg/mL (≈ 9.77 µM).

`Clc1ccc(Oc2ccc(-c3noc(-c4n[nH]cc4Cl)n3)cc2)cc1Cl`: in data set [7], the hemolysis was found to be 1.8%. In the data set on Staphylococcus aureus [1], inhibition of growth (MIC) required 1 µg/mL (≈ 2.45 µM). In addition, the fraction unbound at 2 h in data set [8] is 0.022. In addition, the IC50 in the data set on HepG2 was determined as 17.2 µg/mL (≈ 42.2 µM).

In turn, `Oc1ccc(-c2nc(-c3ccc4oc5ccc(F)cc5c4c3)no2)cc1` showed an MIC in the data set on Staphylococcus aureus [1] of at least 128 µg/mL.

For the compound `Clc1c[nH]nc1-c1nc(-c2ccc(OC3CCNCC3)cc2)no1`, in the data set with Staphylococcus aureus [1], the MIC is at least 128 µg/mL.

In the data set with Staphylococcus aureus [1], `FC(F)(F)Oc1ccc(-c2noc(-c3n[nH]cc3Cl)n2)cc1` registered an MIC of at least 128 µg/mL.

With `Fc1ccc(Oc2ccc(-c3noc(-c4n[nH]cc4Cl)n3)cc2)cc1F`, in [7], the hemolysis was 1.3%. Further, the lowest concentration to inhibit growth in the data set on Staphylococcus aureus [1] (MIC) was 0.5 µg/mL (≈ 1.33 µM). Moreover, the fraction unbound at 2 h in [8] is 0.011. The IC50 in the data set on HepG2 was 17.7 µg/mL (≈ 47.2 µM).

For `COc1ccc2oc3ccc(-c4noc(-c5ccc(O)cc5)n4)cc3c2c1`, the MIC against Staphylococcus aureus [1] was at least 128 µg/mL.

As for `OCc1ccccc1Oc1ccc(-c2noc(-c3ccc(O)cc3)n2)cc1`, the MIC against Staphylococcus aureus [1] is at least 128 µg/mL.

Regarding `Cl.NC1CCC(Oc2ccc(-c3noc(-c4ccc(O)cc4)n3)cc2)CC1` (centres undefined), the MIC in the data set with Staphylococcus aureus [1] was at least 128 µg/mL.

`Oc1ccc(-c2nc(-c3ccc(Oc4cccc(CBr)c4)cc3)no2)cc1` gave an MIC in the data set with Staphylococcus aureus [1] of 4 µg/mL (≈ 9.45 µM).

Consider `Cl.NCCCOc1ccc(-c2noc(-c3ccc(O)cc3)n2)cc1`, for which the MIC in the data set with Staphylococcus aureus [1] was determined as 16 µg/mL.

For the compound `CC(=O)c1ccc(Oc2ccc(-c3noc(-c4n[nH]cc4Cl)n3)cc2)cc1`, in the data set with Staphylococcus aureus [1], the MIC is at least 128 µg/mL.
